According to patent publication US20060204502A1 (priority 2004, published 2006):
“And” between values parts separate entries of the source, which are not always exact repeats. Equal values may be shown once. Read-outs that look alike come from different tables or passages of the source.

Key:
A375 cells = experiment: Flow cytometry cell cycle (G2/M) and apoptosis (sub-G1) analysis, A375; format: cell-based, human; details: for reduction of apoptosis induced by paclitaxel: A375, paclitaxel 25 ng/ml, PD98059 20 μM, U0126 30 μM, SB203580 1 μM; for EC50: Homo sapiens
Procedure: Flow Cytometry Analysis: A375 and NCTC2544 adherent cells were trypsinized, mixed with floating cells, washed with PBS and permeabilised in 70% (vol/vol) ethanol/PBS solution at 4° C. for at least 24 hours. Jurkat, HeL023 and PBMC cells were centrifuged for 10 minutes at 1000×g. The cell pellet was then resuspended and permeabllised in 70% (vol/vol) ethanol/PBS solution at 4° C. for at least 24 hours. The cells were washed with PBS and the DNA was stained with a PBS solution, containing 20 μg/ml of propidium iodide and 100 μg/ml of RNAse, at room temperature for 30 minutes. Cells were analysed by FACScan (Becton-Dickinson) and the content of DNA was evaluated by the Cell-LISYS program (Becton-Dickinson). Cell distribution among cell cycle phases and apoptotic cells was evaluated as previously described (Secchiero et al., 2001). Briefly, the cell cycle distribution is shown as the percentage of cells containing 2n (G1 phase), 4n (G2 and M phases), 4n>x>2n. DNA amount (S phase) judged by propidium iodide staining. The apoptotic population is the percentage of cells with DNA content lower than 2n.
After 24 hours, cells were collected for flow cytometry analysis. PD 98059 was used at 20 uM as an inhibitor of MEK to prevent MEK-1 activation. […]
EC50 values were obtained by analysing G2/M accumulation dose response curve. ECMAX values were obtained by analysing sub-G1 accumulation dose response curve. Paclitaxel values have units of ng/ml.

[1] = test system: Human Colon Carcinoma HT29; experiment: MTT growth inhibitory assay, HT29; format: cell-based; details: for Enhancement Factor: HT29 cells, A3 antagonist at 0.5 μg/ml
Procedure: (§1) Interpretation of the EF is dependent upon the concentrations of A3 receptor antagonist tested. For example, when using very low concentrations of A3 receptor antagonist, any EF above 1.0 is synergistic if the A3 receptor antagonist concentration is below the threshold of cell growth inhibition.
(§2) The cells are sub-cultured twice a week.
(§3) Vinblastine sulfate salt was obtained from Sigma Chemical Co., (V1377). Irinotecan was diluted with culture medium. All other agents were dissolved in 100% DMSO at appropriate concentrations. The DMSO stock solutions were diluted 100-fold with growth medium so that the final DMSO concentration was 1%.

HIF-1α = HIF-1α protein immunoblot in hypoxic cells; format: cell-based, human; details: A375; for effect on Cl-IB-MECA-induced increase of HIF-1α protein expression / effect on adenosine-induced HIF-1α protein expression: hypoxia 4 hours; for effect on Cl-IB-MECA-induced increase of HIF-1α protein expression: Cl-IB-MECA 100 nM, U0126 10 and 30 μM, SB202190 1 and 10 μM; for effect on adenosine-induced HIF-1α protein expression: adenosine 100 μM, antagonist 100 nM
Procedure: Cell culture and hypoxia treatment: Cells were maintained in DMEM (A375), EMEM (NCTC 2544) or RPMI 1640 (U87MG, U2OS) medium containing 10% fetal calf serum, penicillin (100 U/ml), streptomycin (100 ug/ml), and L-glutamine (2 mM) at 37° C. in 5% CO2/95% air. Cells were passaged two or three times weekly at a ratio between 1:5 and 1:10. Hypoxic exposure was in BBL™ GasPak pouch™ System (Becton Dickinson) that reduce oxygen concentration of less than 2% within 2 hours of incubation at 35° C.
Cells were harvested and washed with ice-cold PBS containing 1 mM sodium orthovanadate, AEBSF 104 mM, aprotinin 0.08 mM, leupeptin 2 mM, bestatin 4 mM, pepstatin A 1.5 mM, E-64 1.4 mM. Cells were then lysed in Triton lysis buffer. The protein concentration was determined using BCA protein assay kit (Pierce). […] The gel was then electroblotted onto a nitrocellulose membrane. Membranes were blocked with 5% nonfat dry milk in PBS containing 0.1% Tween-20 and incubated with antibodies against HIF-1α (1:250 dilution) and HIF-1β (1:1000 dilution) in 5% nonfat dry milk in PBS/0.1% Tween-20 overnight at 4° C. Aliquots of total protein sample (50 ug) were analyzed using antibodies specific for phosphorylated (Thr183/Tyr185) or total p44/p42 MAPK (1:5000 dilution), phosphorylated (Thr180/Tyr182) or total p38 MAPK (1:1000 dilution) and for A3 receptor (1 µg/ml dilution). Filters were washed and incubated for 1 hour at room temperature with peroxidase-conjugated secondary antibodies against mouse and rabbit IgG (1:2000 dilution). […] The membranes were then stripped and reprobed with tubulin (1:250) to ensure equal protein loading.
U0126 was used at 10 and 30 uM as inhibitor of MEK-1 and MEK-2 to prevent p44 and p42 MAPK activation. SB202190 was used at 1 and 10 uM as inhibitor of p38 MAPK.
Densitometry analysis: The intensity of each band in immunoblot assay was quantified using molecular analyst/PC densitometry software (Bio-Rad). […] The data were presented as the mean±S.E., and analyzed by the Student's test.

P-gp = P-gp (Homo sapiens, UniProt P08183); format: cell-based; details: for % of Rh123 Negative Cells (cells expressing P-gp activity): HeL023 cells
P-gp, sequence (P08183 whole entry): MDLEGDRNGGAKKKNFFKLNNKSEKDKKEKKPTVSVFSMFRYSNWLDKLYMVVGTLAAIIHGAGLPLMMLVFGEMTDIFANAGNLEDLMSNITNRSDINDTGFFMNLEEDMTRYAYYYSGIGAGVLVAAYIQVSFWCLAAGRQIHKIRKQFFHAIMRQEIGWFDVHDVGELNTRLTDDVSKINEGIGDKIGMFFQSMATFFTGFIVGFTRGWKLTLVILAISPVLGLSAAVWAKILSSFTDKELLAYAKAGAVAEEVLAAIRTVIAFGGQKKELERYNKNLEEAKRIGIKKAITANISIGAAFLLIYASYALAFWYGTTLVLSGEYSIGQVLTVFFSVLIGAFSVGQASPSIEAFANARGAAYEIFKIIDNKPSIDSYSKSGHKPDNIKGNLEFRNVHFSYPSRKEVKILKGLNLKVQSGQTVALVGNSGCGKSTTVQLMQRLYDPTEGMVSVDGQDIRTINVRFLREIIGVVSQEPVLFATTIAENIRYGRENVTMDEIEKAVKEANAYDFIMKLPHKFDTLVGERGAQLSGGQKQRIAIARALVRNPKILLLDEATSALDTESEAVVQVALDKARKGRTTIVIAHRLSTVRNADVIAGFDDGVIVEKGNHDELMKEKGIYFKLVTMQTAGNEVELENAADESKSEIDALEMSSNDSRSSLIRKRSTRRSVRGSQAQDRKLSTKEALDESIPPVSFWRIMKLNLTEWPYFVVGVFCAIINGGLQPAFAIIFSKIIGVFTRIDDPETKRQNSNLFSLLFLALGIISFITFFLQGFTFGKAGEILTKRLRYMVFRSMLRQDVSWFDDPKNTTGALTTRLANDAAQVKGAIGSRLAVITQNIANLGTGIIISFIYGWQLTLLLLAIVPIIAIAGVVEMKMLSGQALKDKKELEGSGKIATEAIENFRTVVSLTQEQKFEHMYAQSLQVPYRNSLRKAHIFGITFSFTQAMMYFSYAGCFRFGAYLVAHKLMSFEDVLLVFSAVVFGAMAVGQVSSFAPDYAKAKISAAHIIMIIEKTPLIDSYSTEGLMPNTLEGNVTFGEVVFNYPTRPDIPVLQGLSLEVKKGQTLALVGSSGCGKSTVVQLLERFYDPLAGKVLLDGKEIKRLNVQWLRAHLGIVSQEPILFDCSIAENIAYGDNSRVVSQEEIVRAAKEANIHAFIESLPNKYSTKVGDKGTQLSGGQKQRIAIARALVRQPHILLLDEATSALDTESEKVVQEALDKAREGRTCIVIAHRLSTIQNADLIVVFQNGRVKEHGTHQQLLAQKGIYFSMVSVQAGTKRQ
Procedure: Rhodamine 123 Efflux Assay: 5×10^5 cells from each subline were loaded with 50 ng/ml of rhodamine 123 for 30 minutes at 37 C in medium. The cells were washed and resuspended in dye-staining agent free medium for 3 hours at 37 C. to allow rhodamine 123 efflux. The cells were then washed twice and the fluorescence of intracellular rhodamine 123 were analysed with Flow cytometer (residual fluorescence FRES). The fluorescence was compared with loaded cells maintained at 4 C. to prevent drug export (maximal fluorescence FMAX). […] Cells from each subline that were not being exposed to rhodamine 123 were used as negative controls.
Rhodamine 123 (Rh123) retention, a P-gp functional assay, was studied in all cell lines. This assay was performed by incubating cells with Rh123 and determining Rh123 accumulation by measuring its fluorescence. The maximum load of Rh123 (FMAX) was quantified at the end of treatment harvesting the cells and storing them at 4° C. to prevent any active Rh123 efflux. The P-gp drug efflux was allowed incubating Rh123-loaded cells in fresh new medium Rh123-free for 3 hours at 37° C. After this incubation, residual fluorescence (FRES) was measured and compared to FMAX.

Human Melanoma A375 = experiment: MTT growth inhibitory assay, A375; details: A375 cells
Procedure: An exemplary assay may comprise the following steps: Cells (1000-1500 cells/well) are seeded in a 96-well micro culture plate in a total volume of 100 μl/well. After overnight incubation in a humidified incubator at 37° C. with 5% CO2-95% air, chemotherapeutic drug solutions diluted with culture medium at various concentrations are added in the amount of 100 μl to each well. The plates are placed in a humidified incubator at 37° C. with 5% CO2-95% air for 7-10 days. The plates are then centrifuged briefly and 100 μl of the growth medium is removed. Cell cultures are incubated with 50 μl of MTT [3-(4,5-dimethylthiazol-2-yl)-2,5-diphenyl-tetrazolium bromide] reagent (1 mg/ml in Dulbecco's phosphate-buffered saline) for 4 hr at 37° C. The resultant purple formazan precipitate is solubilized with 200 μl of 0.04 N HCl in isopropanol. Absorbance is measured at a wavelength of 595 nm and at a reference wavelength of 655 nm using a Bio-Rad Model 3550 Microplate Reader. Preferably, all tests are run in duplicate for each dose level. […] The EZED50 computer program estimates the concentration of agent that inhibits cell growth by 50% as compared to the control cells. This is termed the IC50 and is determined by curve fitting test data using the following four logistic equation. [formula]
If testing concentrations are properly selected (i.e., no or little growth inhibition at low concentrations and complete inhibition at high concentrations), EZED50 program fits the data extremely well and estimates the IC50 value accurately. […] In these instances, the data could be re-analyzed by fixing the Amax value.
In this case, the IC50 could be estimated more accurately if both the Amax and Amin values are fixed. Although it may be feasible to estimate IC50 value by fixing Amax and/or Amax and Amin without repeating the experiment, the best way to determine the IC50 accurately is to decrease or increase the concentrations of the test agent and repeat the test.
Inhibitory assay testing is also used to determine enhanced therapeutic effects from combining A3 receptor antagonists with other tumor inhibiting agents. The inhibitory cell growth assays are run with and without selected concentrations of A3 receptor antagonists. An enhanced therapeutic effect is present when the IC50 of the tumor inhibiting agent is lower with the A3 receptor antagonist.
Quantitatively, the enhancement factor (EF) is calculated by dividing the IC50 value of the tumor inhibiting agent for a tumor cell line by the IC50 value of the agent with A3 receptor antagonist for the same cell line: [formula]
The cells are cultured in a T25 Falcon Tissue Culture flask in a humidified incubator at 37° C. with 5% CO2-95% air. The cells are sub-cultured twice a week.

[2] = test system: Human Lung Carcinoma SKMES; experiment: MTT growth inhibitory assay, SKMES; format: cell-based; details: SKMES cells, A3 antagonist at 0.5 μg/ml
Procedure: as §1, §2, §3

[3] = test system: Human Pancreatic Cancer Panc-1; experiment: MTT growth inhibitory assay, Panc-1; format: cell-based; details: Panc-1 cells, A3 antagonist at 0.5 μg/ml
Procedure: as §1, §2, §3

[4] = administered at 100 mg/m^2; cited from earlier work

SMILES: C[S+]([O-])c1ccc(-c2nc(-c3ccncc3)c(-c3ccc(F)cc3)[nH]2)cc1 (stereo not shown) [SB203580]
- reduction of apoptosis induced by paclitaxel (A375 cells): did not exert any effect

SMILES: O=C1c2c(O)ccc(O)c2C(=O)c2c(NCCNCCO)ccc(NCCNCCO)c21 [mitoxantrone, reference compound]
- fold more refractory, HT29 vs A375 cell line (IC50) [1]: approximately 30 fold

SMILES: Cn1cc2c(nc(NC(=O)Nc3ccncc3)n3nc(-c4ccco4)nc23)n1 [MRE 3005F20]
- effect on Cl-IB-MECA-induced HIF-1α modulation (HIF-1α; hypoxia, antagonist 10 and 100 nM, Cl-IB-MECA 10 and 100 nM): able to abrogate the effect of Cl-IB-MECA

SMILES: Oc1ccc(-c2nc(-c3ccncc3)c(-c3ccc(F)cc3)[nH]2)cc1 [SB202190]
- effect on Cl-IB-MECA-induced increase of HIF-1α protein expression (HIF-1α): able to inhibit

SMILES: CCCn1cc2c(nc(NC(=O)Nc3ccccc3)n3nc(-c4ccco4)nc23)n1 [MRE 3055F20, 5-N-(4-phenylcarbamoyl)amino-8-propyl-2(2furyl)-pyrazolo[4,3e]-1,2,4-triazolo-[1,5c]pyrimidine]
- EC50 (A375 cells; A-375, read-out: SEC50): 310 ± 30 nM
- % of Rh123 Negative Cells (cells expressing P-gp activity) (P-gp; 10 μM): 0.8 ± 0.2%

SMILES: CC[C@]1(O)C[C@@H]2CN(CCc3c([nH]c4ccccc34)[C@@](C(=O)OC)(c3cc4c(cc3OC)N(C)[C@H]3[C@@](O)(C(N)=O)[C@H](O)[C@]5(CC)C=CCN6CC[C@]43[C@@H]65)C2)C1 [vindesine]
- EC50 (A375 cells; A-375, 24 h, read-out: EC50 (G2/M accumulation)): 1.9 ± 0.2 nM

SMILES: Cc1ccc(NC(=O)Nc2nc3nn(C)cc3c3nc(-c4ccco4)nn23)cc1 [MRE 3046F20, 5-N-(4-methylphenyl-carbamoyl)amino-8-methyl-2(2-furyl)-pyrazolo-[4,3e]-1,2,4-triazolo[1,5-c]pyrimidine]
- EC50 (A375 cells; A-375, read-out: SEC50): 570 ± 60 nM
- % of Rh123 Negative Cells (cells expressing P-gp activity) (P-gp; 10 μM): 22.0 ± 1.0%

SMILES: Nc1nc2ccc(Cl)cc2c2nc(-c3ccco3)nn12 [CGS 15943, 5-amino-9-chloro-2-(furyl)1,2,4-triazolo[1,5-c]quinazoline, reference compound]
- EC50 (A375 cells; A-375, read-out: SEC50): 12600 ± 1410 nM
- % of Rh123 Negative Cells (cells expressing P-gp activity) (P-gp; 70 μM): 87.1 ± 1.0%

SMILES: CCN(CC)c1ccc(NC(=O)Nc2nc3nn(C)cc3c3nc(-c4ccco4)nn23)cc1.Cl [IL-10, N-1-(4-diethylamino-phenyl)-N′—S-[8-methyl-2-(2-furyl)-pyrazolo[4,3-e]1,2,4-triazolo[1,5-c]pyrimidine]-urea]
- Enhancement Factor (Human Melanoma A375; enhancement of docetaxel IC50, A3 antagonist at 0.5 μg/ml): 8.4
- Enhancement Factor (Human Melanoma A375; enhancement of docetaxel IC50, A3 antagonist at 5 μg/ml): 2.9
- Enhancement Factor (Human Melanoma A375; enhancement of paclitaxel IC50, A3 antagonist at 0.5 μg/ml): 3.7
- Enhancement Factor (Human Melanoma A375; enhancement of paclitaxel IC50, A3 antagonist at 5 μg/ml): 8.8 and 9.2
- Enhancement Factor ([2]; enhancement of docetaxel IC50): 2.8
- Enhancement Factor ([2]; enhancement of irinotecan HCL IC50): 1.7
- Enhancement Factor ([2]; enhancement of paclitaxel IC50): 2.8
- Enhancement Factor ([2]; enhancement of vinblastine IC50): 1.4
- Enhancement Factor ([3]; enhancement of docetaxel IC50): 1.4
- Enhancement Factor ([3]; enhancement of paclitaxel IC50): 1.7
- Enhancement Factor ([1]; enhancement of docetaxel IC50): 5.5
- Enhancement Factor ([1]; enhancement of doxorubicin IC50): 1.5
- Enhancement Factor ([1]; enhancement of irinotecan IC50): 1.2
- Enhancement Factor ([1]; enhancement of paclitaxel IC50): 2.5
- % of Rh123 Negative Cells (cells expressing P-gp activity) (P-gp; 10 μM): 0.4 ± 0.2%

SMILES: Nc1nc2c(cnn2CCc2ccccc2)c2nc(-c3ccco3)nn12 [SCH 58261, 5-amino-7-(2-phenylethyl)-2-(2-furyl)-pyrazolo[4,3-e]-1,2,4-triazolo[1,5-c]pyrimidine]
- effect on adenosine-induced HIF-1α protein expression (HIF-1α): not able to prevent

SMILES: N#CC(=C(/N)Sc1ccccc1N)/C(C#N)=C(\N)Sc1ccccc1N [Compound U0126]
- effect on Cl-IB-MECA-induced increase of HIF-1α protein expression (HIF-1α): able to inhibit
- reduction of apoptosis induced by paclitaxel (A375 cells): 73±10%
- effect on MRE 3008F20 blockade of P-gp (P-gp; A375, U0126 30 μM 30 minutes, then MRE3008F20 10 μM): failed to prevent MRE 3008F20 blockade of P-gp

SMILES: CC(=O)O[C@@]12CO[C@@H]1C[C@H](O)[C@@]1(C)C(=O)[C@H](O)C3=C(C)[C@@H](OC(=O)[C@H](O)[C@@H](NC(=O)OC(C)(C)C)c4ccccc4)C[C@@](O)([C@@H](OC(=O)c4ccccc4)[C@H]21)C3(C)C [docetaxel]
- acute hypersensitivity reaction, % of patients [4]: 13%
- severe hypersensitivity reaction, % of patients [4]: 1.2%

SMILES: COc1cccc2c1C(=O)c1c(O)c3c(c(O)c1C2=O)C[C@@](O)(C(=O)CO)C[C@@H]3O[C@H]1C[C@H](N)[C@H](O)[C@H](C)O1 [doxorubicin, reference compound]
- fold more refractory, HT29 vs A375 cell line (IC50) [1]: approximately 30 fold

SMILES: CCCn1c(=O)c2[nH]c(-c3cc(OCC(=O)Nc4ccc5c(c4)OCO5)nn3C)nc2n(CCC)c1=O [MRE 2029F20]
- effect on adenosine-induced HIF-1α protein expression (HIF-1α): not able to prevent
